{"source": "patent US20150087722A1", "about": "“TREATMENT FOR BREAST TUMOR CELL METASTASIS” (China Medical University, priority 2012, published 2015)", "key": {"[1]": {"system": "Rat Skin Tumor Cell (B16F1 cell strain)", "experiment": "MTT cell viability assay", "assay_type": "cell-based", "details": "Mus musculus, B16-F1"}, "[2]": {"system": "Normal Endothelial Cell (EAhy926 cell strain)", "experiment": "MTT cell viability assay", "assay_type": "cell-based, human", "procedure": "The cell viability was determined by a method of […] (MTT assay). The test method for assaying cell viability refers to steps provided by Parada-Turska et al.\nThe breast tumor cells MDA-MB-231 were inoculated in a 24-well plate (2.5×10^5 cells/well), and the next day after cells were adhered to the wall of the plate, the cells were washed with PBS. 1% FBS-DMEM culture medium was then added so as to synchronize cells. The next day compound II having different concentrations were added into the wells, and the cells were subsequently cultured in an atmosphere of 5% CO2 at 37° C. for 24 h. The cells were washed with PBS once, and 400 μl MTT agent was added in each well so as to react for 4 h. […] 200 μl supernatant was taken from the well and then added into a 96-well microplate, so as to measure the absorbance at 570 nm.\nIn the MTT assay, the umbilical vein endothelial cells (EAhy926 cell strain) was planted 80 percent full and cultured in a 1×HAT culture medium including 15% FBS-DMEM, 1% glutamine and 1% PSN (used for screening cells having the characteristic of cell fusion). […] The culture medium was replaced in 24 h before the experiment, and the number of cells was counted by a hemocytometer. […] The supernatant was taken and putted into a 96-well microplate, and then the absorbance was measured at a wavelength of 570 nm."}, "[3]": {"system": "Normal Rat Macrophage Cell (RAW264.7 cell strain)", "experiment": "MTT cell viability assay", "assay_type": "cell-based"}, "[4]": {"system": "MMP-9, MMP2 and uPA in breast tumor cells MDA-MB-231", "experiment": "Zymography enzyme activity assay", "assay_type": "cell-based, human", "details": "MDA-MB-231, with dose increasing, FIG. 8B", "source_text": "(§1) Referring to FIG. 8B, the Zymography enzyme activity assay was used to detect effect of the compound II in different doses on enzyme activities of the MMP-9, MMP2 and uPA in the breast tumor cells MDA-MB-231. Moreover, referring to FIG. 9, the Zymography enzyme activity assay was used to detect effect of the compound I on enzyme activities of the MMP-9 and MMP2 in the human normal breast cells MCF-10A stimulated by TNF-α/TGF-β. In the Zymography enzyme activity assay, the cells (1×10^6) were planted in a 6-well plate. The next day after the cells were adhered to the wall, the cells were cultured in a serum free DMEM culture medium at an atmosphere of 5% CO2 in an incubator at 37° C. for 24 h. The compound II in different doses were added into the DMEM culture medium. In other test groups, the compound I was added, TNF-α/TGF-β were added or the compound I and TNF-α/TGF-β were added into the DMEM culture medium, wherein the concentration of compound I and TNF-α/TGF-β were 2 mM and 10 ng/ml, respectively. The cells were cultured in the culture medium for 2 h and then washed with PBS. The cell culture medium was putted into a microcentrifuge tube and centrifuged for 10 min at 1500 rpm. The supernatant was taken to perform a protein gel electrophoresis (SDS-PAGE), so as to separate the proteins. […]"}, "[5]": {"system": "ROS content in breast tumor cells MDA-MB-231", "experiment": "intracellular reactive oxygen species method", "assay_type": "cell-based, human", "procedure": "In FIG. 12, the reactive oxygen species method was used to detect the effect of increased treatment doses of the compound II on the ROS content in breast tumor cells, and a photograph was taken at a 200× field under the fluorescence microscope. In the intracellular reactive oxygen species method, the cells were planted in a 24-well plate (5×10^4 cells/well). The next day after the cells were adhered to the wall, the cells were cultured in a serum free DMEM culture medium at an atmosphere of 5% CO2 in an incubator at 37° C. for 12 h. The compound II was added into the 1% FBS-DMEM culture medium, and the cells were cultured in the culture medium for 2 h. The cells were then washed with PBS. 100 ng/mL LPS was added to react with the cells, and then the cells were washed with PBS. Culture medium including 10 μM fluorescent probe (DCFH2-DA) was supplied and then the cells were cultured for 30 min at 37° C. The cells were washed with PBS for three times so as to remove the residual stain. Finally the cells were lysed using 0.25% Tritox-100. The absorbance was measured by a fluorescence spectrometer, where the excitation wavelength was set as 485±20 nm, and the […] was set as 530±25 nm."}, "[6]": {"system": "tumor inoculated nude mice", "experiment": "histopathological examination (H&E staining) of tumor inoculated nude mice", "assay_type": "in vivo", "details": "0.75 mg/Kg everyday, magnification 400×", "procedure": "In the histopathological examination of tumor inoculated nude mice, the inoculated nude mice were examined through a histopathological H&E staining method. The tumor and internal organs were embedded in paraffin and sliced into slides having a thickness of […] by a slicer. Then after deparaffinizing, rehydrating and renaturating, the slide was washed with water twice and stained with Hematoxylin solution for 30-50 s. Then the slide was treated with 0.1% acetic acid-water and washed with water twice. At last the slide was stained with Eosin for 100 s and mounted with Histoclad."}, "[7]": {"system": "MMP-9 and MMP2 in human normal breast cells MCF-10A stimulated by TNF-α/TGF-β", "experiment": "Zymography enzyme activity assay", "assay_type": "cell-based", "source_text": "as §1"}}}
{"smiles": "COC1=C(OC)C(=O)C(C)=C(C)C1=O", "note": "[compound II]", "values": [{"measurement": "IC50", "setting": "[1]", "result": 12.8, "unit": "µM"}, {"measurement": "cell viability", "setting": "[2]; EAhy926, concentration above 10 μM, 10 ng/mL TNF-α/TGF stimulation, FIG. 18", "result": "significantly decreased"}, {"measurement": "IC50", "setting": "[2]; Homo sapiens, EA.hy 926, viability, EAhy926 cell strain", "result": 35.1, "unit": "µM"}, {"measurement": "IC50", "setting": "[3]", "result": 25.5, "unit": "µM"}, {"measurement": "enzyme activities of MMP-2, MMP-9 and uPA", "setting": "[4]", "result": "decreased"}, {"measurement": "increasing trend of reactive oxygen species", "setting": "[5]; MDA-MB-231, with antioxidant NAC added at the same time", "result": "not obvious"}, {"measurement": "content of reactive oxygen species", "setting": "[5]; MDA-MB-231, with increasing treatment doses", "result": "increased accordingly"}, {"measurement": "mitosis state of tumor cells", "setting": "[6]", "result": "low mitosis state"}]}
{"smiles": "COC1=C(OC)C(=O)C(C)=CC1=O", "note": "[compound I]", "values": [{"measurement": "enzyme activities of MMP-2 and MMP-9", "setting": "[7]; compound alone", "result": "decreased"}, {"measurement": "enzyme activities of MMP-2 and MMP-9", "setting": "[7]; with TNF-α/TGF-β simultaneously", "result": "recovered the increase caused by TNF-α/TGF-β stimulating"}]}
